Holding throughout (assay): relative viability (nuclei count vs DMSO), 5 days (fraction); higher = more cells survive
Compound in experiment [1]: CN(c1ncccc1CNc1nc(Nc2ccc3c(c2)CC(=O)N3)ncc1C(F)(F)F)S(C)(=O)=O + CC(=O)Nc1cccc(-n2c(=O)n(C3CC3)c(=O)c3c(Nc4ccc(I)cc4F)n(C)c(=O)c(C)c32)c1 [Trametinib] (partner 0.02 µM)
In a few lines:
(§1)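 Each reported value is a median over duplicate plates. It expresses relative viability: treated-well nuclei count divided by vehicle-well nuclei count. Lung cancer cell lines in 1536-well plates were dosed by pin tool a day after seeding, alone with one drug or with a fixed anchor-drug dose plus five library-drug doses (not always all listed) in √10 steps, and nuclei were counted after 5 days.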

Compound in experiment [2]: CN(c1ncccc1CNc1nc(Nc2ccc3c(c2)CC(=O)N3)ncc1C(F)(F)F)S(C)(=O)=O + CC1(C)CCC(c2ccc(Cl)cc2)=C(CN2CCN(c3ccc(C(=O)NS(=O)(=O)c4ccc(N[C@H](CCN5CCOCC5)CSc5ccccc5)c(S(=O)(=O)C(F)(F)F)c4)cc3)CC2)C1 [Navitoclax] (partner 0.5 µM)
In a few lines:
as §1

Compound in experiment [3]: CN(c1ncccc1CNc1nc(Nc2ccc3c(c2)CC(=O)N3)ncc1C(F)(F)F)S(C)(=O)=O + N=C(N)NC(=N)NCCc1ccccc1 [Phenformin] (partner 250 µM)
In a few lines:
as §1

Compound in experiment [4]: CN(c1ncccc1CNc1nc(Nc2ccc3c(c2)CC(=O)N3)ncc1C(F)(F)F)S(C)(=O)=O + Nc1nc2[nH]cc(CCc3ccc(C(=O)N[C@@H](CCC(=O)O)C(=O)O)cc3)c2c(=O)[nH]1 [Pemetrexed] (partner 0.2 µM)
The essentials:
as §1

The results in this text go back to the supplement of paper PMC10307832.

Consider EMC-BAC-2, for which the relative viability in experiment [1] (first compound 0.01 µM) was 0.872; in experiment [1] (first compound 0.03162 µM), 0.887; in experiment [1] (first compound 0.1 µM), 0.855; in experiment [1] (first compound 0.3162 µM) it was 0.841; in experiment [1] (first compound 1 µM), 0.722; in experiment [2] (first compound 0.01 µM), 1.18. Moreover, the relative viability in experiment [2] (first compound 0.03162 µM) was 1.24; in experiment [2] (first compound 0.1 µM), 1.05; in experiment [2] (first compound 0.3162 µM) it was 1.16; in experiment [2] (first compound 1 µM) it was 1.2; in experiment [3] (first compound 0.01 µM), 0.628; in experiment [3] (first compound 0.03162 µM), 0.568. Also, the relative viability in experiment [3] (first compound 0.1 µM) was found to be 0.496; in experiment [3] (first compound 0.3162 µM), 0.551; in experiment [3] (first compound 1 µM) it was 0.452; in experiment [4] (first compound 0.01 µM), 0.427; in experiment [4] (first compound 0.03162 µM) it was 0.471; in experiment [4] (first compound 0.1 µM), 0.433. The values for the relative viability in experiment [4] (first compound 0.3162 µM) and in experiment [4] (first compound 1 µM) were 0.472 and 0.45, respectively.
Consider NCI-H1650, for which the relative viability in experiment [1] (first compound 0.01 µM) was 0.647; in experiment [1] (first compound 0.03162 µM), 0.587; in experiment [1] (first compound 0.1 µM), 0.582; in experiment [1] (first compound 0.3162 µM), 0.57; in experiment [1] (first compound 1 µM), 0.483; in experiment [2] (first compound 0.01 µM) it was 1.26. Further, the relative viability amounted to 1.39 in experiment [2] (first compound 0.03162 µM); 1.39 in experiment [2] (first compound 0.1 µM); 0.76 in experiment [2] (first compound 1 µM); 0.481 in experiment [3] (first compound 0.01 µM); 0.53 in experiment [3] (first compound 0.03162 µM); 0.519 in experiment [3] (first compound 0.1 µM). The relative viability in experiment [3] (first compound 0.3162 µM) worked out at 0.436; in experiment [3] (first compound 1 µM) it was 0.409; in experiment [4] (first compound 0.01 µM), 0.379; in experiment [4] (first compound 0.03162 µM), 0.321; in experiment [4] (first compound 0.1 µM) it was 0.432; in experiment [4] (first compound 0.3162 µM) it was 0.384. Also, the relative viability in experiment [4] (first compound 1 µM) was 0.318.
As for NCI-H596, the relative viability is 0.932 in experiment [1] (first compound 0.01 µM); 0.779 in experiment [1] (first compound 0.03162 µM); 0.559 in experiment [1] (first compound 0.1 µM); 0.781 in experiment [1] (first compound 0.3162 µM); 0.728 in experiment [1] (first compound 1 µM); 0.9 in experiment [2] (first compound 0.01 µM). Moreover, the relative viability came out at 0.912 in experiment [2] (first compound 0.03162 µM); 0.965 in experiment [2] (first compound 0.1 µM); 0.86 in experiment [2] (first compound 0.3162 µM); 0.675 in experiment [2] (first compound 1 µM); 0.807 in experiment [3] (first compound 0.01 µM); 0.745 in experiment [3] (first compound 0.03162 µM). Besides, the relative viability in experiment [3] (first compound 0.1 µM) came out at 0.657; in experiment [3] (first compound 0.3162 µM), 0.611; in experiment [3] (first compound 1 µM), 0.763; in experiment [4] (first compound 0.01 µM) it was 0.425; in experiment [4] (first compound 0.03162 µM), 0.466; in experiment [4] (first compound 0.1 µM) it was 0.503. The relative viability in experiment [4] (first compound 0.3162 µM) was 0.469; in experiment [4] (first compound 1 µM) it was 0.605.
With LCLC-97TM1, the relative viability in experiment [1] (first compound 0.01 µM) amounted to 0.207; in experiment [1] (first compound 0.03162 µM), 0.189; in experiment [1] (first compound 0.1 µM), 0.184; in experiment [1] (first compound 0.3162 µM), 0.206; in experiment [1] (first compound 1 µM), 0.124; in experiment [2] (first compound 0.03162 µM), 0.394. The relative viability is 0.25 in experiment [2] (first compound 0.1 µM); 0.381 in experiment [2] (first compound 0.3162 µM); 0.385 in experiment [2] (first compound 1 µM); 0.345 in experiment [3] (first compound 0.01 µM); 0.437 in experiment [3] (first compound 0.03162 µM); 0.425 in experiment [3] (first compound 0.1 µM). For the same cell line, the relative viability in experiment [3] (first compound 0.3162 µM) was 0.397; in experiment [3] (first compound 1 µM), 0.401; in experiment [4] (first compound 0.01 µM), 0.149; in experiment [4] (first compound 0.03162 µM), 0.164; in experiment [4] (first compound 0.1 µM), 0.125; in experiment [4] (first compound 0.3162 µM) it was 0.133. In addition, the relative viability in experiment [4] (first compound 1 µM) came out at 0.13.
